As a reminder, the Km is the concentration of substrate that gives half-maximal velocity.

Like-named read-outs stand apart in the source and are kept apart here.

These results are taken from doi:10.1101/2025.01.02.631061v1 (biorxiv, 2025).

In experiment [1] the test system is UnBGl1. The following applies: optimum pH 6.5, 55 °C, 10 min.
The test system of experiment [2] is UnBGl1. The following applies: pH 6.0, 55 °C, 10 min.
In experiment [3] the test system is UnBGl1. Nature of the experiment: pNP release, absorbance […] nm, Michaelis-Menten. The following applies: pH 6.0, 55 °C, 10 min. Format: biochemical, soil metagenome.
The test system of experiment [4] is UnBGl1. The conditions noted are these: optimum pH 5.5, 50 °C, 30 min.
In experiment [5] the test system is UnBGl1. The conditions noted are these: pH 6.0, 50 °C, 30 min.

Take `O=[N+]([O-])c1ccc(O[C@@H]2O[C@H](CO)[C@@H](O)[C@H](O)[C@H]2O)cc1` [4-nitrophenyl β-D-glucopyranoside]: the Michaelis constant (Km) in experiment [1] was found to be 0.65 ± 0.04 mM; in experiment [2] it was 7.35 ± 3 mM; in experiment [3] it was 0.92 ± 0.05 mM.
With `OC[C@H]1O[C@@H](O[C@H]2[C@H](O)[C@@H](O)C(O)O[C@@H]2CO)[C@H](O)[C@@H](O)[C@@H]1O` (some centres unmarked) [cellobiose], the Km in experiment [4] amounted to 22.9 ± 1.1 mM; in experiment [5], 34.6 ± 2.4 mM.
